Measured values reported in ChEMBL document CHEMBL2440076, “New triarylpyrazoles as broad-spectrum anticancer agents: design, synthesis, and biological evaluation” (Eur J Med Chem, 2013).

Experiments:
Type in all cases: functional
UACC-62 [1] = experiment: Growth inhibition of human UACC62 cells assessed as cell growth at 3X10'-9 M after 48 hrs by sulforhodamine B assay; conditions: UACC-62, 48 h, read-out: Activity
SR = experiment: Growth inhibition of human SR cells assessed as cell growth at 3X10'-7 M after 48 hrs by sulforhodamine B assay; conditions: read-out: Activity
[2] = Growth inhibition of human NCI-ADR-RES cells assessed as cell growth at 3X10'-8 M after 48 hrs by sulforhodamine B assay; conditions: read-out: Activity
SF-268 [3] = experiment: Growth inhibition of human SF268 cells assessed as cell growth at 3X10'-9 M after 48 hrs by sulforhodamine B assay; conditions: SF-268, 48 h, read-out: Activity
UACC-62 [4] = experiment: Growth inhibition of human UACC62 cells assessed as cell growth at 3X10'-6 M after 48 hrs by sulforhodamine B assay; conditions: UACC-62, 48 h, read-out: Activity
OVCAR-8 [5] = experiment: Growth inhibition of human OVCAR8 cells assessed as cell growth at 3X10'-5 M after 48 hrs by sulforhodamine B assay; conditions: OVCAR-8, 48 h, read-out: Activity
SF-295 [6] = experiment: Growth inhibition of human SF295 cells assessed as cell growth at 3X10'-8 M after 48 hrs by sulforhodamine B assay; conditions: SF-295, 48 h, read-out: Activity
A549 = experiment: Growth inhibition of human A549/ATCC cells assessed as cell growth at 3X10'-7 M after 48 hrs by sulforhodamine B assay; conditions: A549, 48 h, read-out: Activity
UACC-257 [7] = experiment: Growth inhibition of human UACC257 cells assessed as cell growth at 3X10'-5 M after 48 hrs by sulforhodamine B assay; conditions: UACC-257, 48 h, read-out: Activity
SF-268 [8] = experiment: Growth inhibition of human SF268 cells assessed as cell growth at 3X10'-7 M after 48 hrs by sulforhodamine B assay; conditions: SF-268, 48 h, read-out: Activity
SF-295 [9] = experiment: Growth inhibition of human SF295 cells assessed as cell growth at 3X10'-9 M after 48 hrs by sulforhodamine B assay; conditions: SF-295, 48 h, read-out: Activity
OVCAR-8 [10] = experiment: Growth inhibition of human OVCAR8 cells assessed as cell growth at 3X10'-6 M after 48 hrs by sulforhodamine B assay; conditions: OVCAR-8, 48 h, read-out: Activity
SNB-75 [11] = experiment: Growth inhibition of human SNB75 cells assessed as cell growth at 3X10'-7 M after 48 hrs by sulforhodamine B assay; conditions: SNB-75, 48 h, read-out: Activity
K562 = experiment: Growth inhibition of human K562 cells assessed as cell growth at 3X10'-8 M after 48 hrs by sulforhodamine B assay; conditions: K562, 48 h, read-out: Activity
DU-145 = experiment: Growth inhibition of human DU145 cells assessed as cell growth at 3X10'-5 M after 48 hrs by sulforhodamine B assay; conditions: DU-145, 48 h, read-out: Activity
[12] = Growth inhibition of human Hs 578T cells assessed as cell growth at 3X10'-5 M after 48 hrs by sulforhodamine B assay; conditions: read-out: Activity
Malme-3M = experiment: Growth inhibition of human MALME-3M cells assessed as cell growth at 3X10'-6 M after 48 hrs by sulforhodamine B assay; conditions: read-out: Activity
SK-OV-3 = experiment: Growth inhibition of human SKOV3 cells assessed as cell growth at 3X10'-9 M after 48 hrs by sulforhodamine B assay; conditions: SK-OV-3, 48 h, read-out: Activity
RPMI-8226 = experiment: Growth inhibition of human RPMI8226 cells assessed as cell growth at 3X10'-7 M after 48 hrs by sulforhodamine B assay; conditions: RPMI-8226, 48 h, read-out: Activity
SK-MEL-28 = experiment: Growth inhibition of human SK-MEL-28 cells assessed as cell growth at 3X10'-9 M after 48 hrs by sulforhodamine B assay; conditions: SK-MEL-28, 48 h, read-out: Activity
KM12 [13] = experiment: Growth inhibition of human KM12 cells assessed as cell growth at 3X10'-5 M after 48 hrs by sulforhodamine B assay; conditions: KM12, 48 h, read-out: Activity
NCI-H460 = experiment: Growth inhibition of human NCI-H460 cells assessed as cell growth at 3X10'-5 M after 48 hrs by sulforhodamine B assay; conditions: NCI-H460, 48 h, read-out: Activity
PC-3 = experiment: Growth inhibition of human PC3 cells assessed as cell growth at 3X10'-5 M after 48 hrs by sulforhodamine B assay; conditions: PC-3, 48 h, read-out: Activity
KM12 [14] = experiment: Growth inhibition of human KM12 cells assessed as cell growth at 3X10'-8 M after 48 hrs by sulforhodamine B assay; conditions: KM12, 48 h, read-out: Activity
NCI-H522 = experiment: Growth inhibition of human NCI-H522 cells assessed as cell growth at 3X10'-9 M after 48 hrs by sulforhodamine B assay; conditions: NCI-H522, 48 h, read-out: Activity
MCF7 = experiment: Growth inhibition of human MCF7 cells assessed as cell growth at 3X10'-8 M after 48 hrs by sulforhodamine B assay; conditions: MCF7, 48 h, read-out: Activity
SW-620 = experiment: Growth inhibition of human SW620 cells assessed as cell growth at 3X10'-6 M after 48 hrs by sulforhodamine B assay; conditions: SW-620, 48 h, read-out: Activity
UO-31 [15] = experiment: Growth inhibition of human UO31 cells assessed as cell growth at 3X10'-8 M after 48 hrs by sulforhodamine B assay; conditions: UO-31, 48 h, read-out: Activity
LOX IMVI = experiment: Growth inhibition of human LOXIMVI cells assessed as cell growth at 3X10'-8 M after 48 hrs by sulforhodamine B assay; conditions: read-out: Activity
HT-29 = experiment: Growth inhibition of human HT-29 cells assessed as cell growth at 3X10'-6 M after 48 hrs by sulforhodamine B assay; conditions: HT-29, 48 h, read-out: Activity
NCI-H23 = experiment: Growth inhibition of human NCI-H23 cells assessed as cell growth at 3X10'-9 M after 48 hrs by sulforhodamine B assay; conditions: NCI-H23, 48 h, read-out: Activity
SN12C [16] = experiment: Growth inhibition of human SN12C cells assessed as cell growth at 3X10'-5 M after 48 hrs by sulforhodamine B assay; conditions: read-out: Activity
UO-31 [17] = experiment: Growth inhibition of human UO31 cells assessed as cell growth at 3X10'-7 M after 48 hrs by sulforhodamine B assay; conditions: UO-31, 48 h, read-out: Activity
UO-31 [18] = experiment: Growth inhibition of human UO31 cells assessed as cell growth at 3X10'-5 M after 48 hrs by sulforhodamine B assay; conditions: UO-31, 48 h, read-out: Activity
CAKI-1 = experiment: Growth inhibition of human CAKI-1 cells assessed as cell growth at 3X10'-5 M after 48 hrs by sulforhodamine B assay; conditions: CAKI-1, 48 h, read-out: Activity
SN12C [19] = experiment: Growth inhibition of human SN12C cells assessed as cell growth at 3X10'-8 M after 48 hrs by sulforhodamine B assay; conditions: read-out: Activity
UACC-257 [20] = experiment: Growth inhibition of human UACC257 cells assessed as cell growth at 3X10'-7 M after 48 hrs by sulforhodamine B assay; conditions: UACC-257, 48 h, read-out: Activity
SNB-75 [21] = experiment: Growth inhibition of human SNB75 cells assessed as cell growth at 5X10'-6 M after 48 hrs by sulforhodamine B assay; conditions: SNB-75, 48 h, read-out: Activity

Row | Structure (SMILES) | growth at 0.003 µM (UACC-62 [1]) [%] | growth at 0.3 µM (SR) [%] | growth at 0.03 µM [2] [%] | growth at 0.003 µM (SF-268 [3]) [%] | growth at 3 µM (UACC-62 [4]) [%] | growth at 30 µM (OVCAR-8 [5]) [%] | growth at 0.3 µM (A549) [%] | growth at 30 µM (UACC-257 [7]) [%] | growth at 0.3 µM (SF-268 [8]) [%] | growth at 3 µM (OVCAR-8 [10]) [%] | growth at 0.3 µM (SNB-75 [11]) [%] | growth at 0.03 µM (K562) [%] | growth at 30 µM (DU-145) [%] | growth at 30 µM [12] [%] | growth at 3 µM (Malme-3M) [%] | growth at 0.003 µM (SK-OV-3) [%] | growth at 0.3 µM (RPMI-8226) [%] | growth at 0.003 µM (SK-MEL-28) [%] | growth at 30 µM (KM12 [13]) [%] | growth at 5 µM (SNB-75 [21]) [%] | also measured
1 | COc1cc(-c2nn(-c3cccc(NC(=O)Nc4ccc(Cl)c(C(F)(F)F)c4)c3)cc2-c2ccncc2)ccc1Cl | 95 | 98 | 108 | 97 | -21 | -13 | 89 | -53 | 97 | 5 | 88 | 105 | 2 | -8 | -16 | 105 | 87 | 99 | -79 |  | growth at 0.03 µM (SF-295 [6]): 90%; growth at 0.003 µM (SF-295 [9]): 92%; growth at 30 µM (NCI-H460): -28%; growth at 30 µM (PC-3): -20%; growth at 0.03 µM (KM12 [14]): 101%; growth at 0.003 µM (NCI-H522): 106%; growth at 0.03 µM (MCF7): 92%; growth at 3 µM (SW-620): 17%; growth at 0.03 µM (UO-31 [15]): 89%; growth at 0.03 µM (LOX IMVI): 100%; growth at 3 µM (HT-29): 10%; growth at 0.003 µM (NCI-H23): 100%; growth at 30 µM (SN12C [16]): -19%; growth at 0.3 µM (UO-31 [17]): 85%; growth at 30 µM (UO-31 [18]): -28%; growth at 30 µM (CAKI-1): -20%; growth at 0.03 µM (SN12C [19]): 94%; growth at 0.3 µM (UACC-257 [20]): 91%
2 | O=C(Nc1cccc(-n2cc(-c3ccncc3)c(-c3ccc(Cl)c(O)c3)n2)c1)Nc1cc(C(F)(F)F)cc(C(F)(F)F)c1 |  |  |  |  |  |  |  |  |  |  |  |  |  |  |  |  |  |  |  | -46 | 
3 | COc1cc(-c2nn(-c3cccc(NC(=O)Nc4cccc(C(F)(F)F)c4)c3)cc2-c2ccncc2)ccc1Cl |  |  |  |  |  |  |  |  |  |  |  |  |  |  |  |  |  |  |  | -4 | 
4 | COc1cc(-c2nn(-c3cccc(NC(=O)Nc4cc(C(F)(F)F)cc(C(F)(F)F)c4)c3)cc2-c2ccncc2)ccc1Cl |  |  |  |  |  |  |  |  |  |  |  |  |  |  |  |  |  |  |  | -50 | 
5 | O=C(Nc1cccc(-n2cc(-c3ccncc3)c(-c3ccc(Cl)c(O)c3)n2)c1)Nc1ccc(Cl)c(Cl)c1 | 99 | 97 | 97 | 93 | 14 | 7 | 85 | -24 | 102 | 16 | 83 | 102 | 9 | -21 | 10 | 96 | 90 | 102 | -56 |  | growth at 30 µM (NCI-H460): -58%; growth at 30 µM (PC-3): 1%; growth at 0.03 µM (KM12 [14]): 92%; growth at 0.003 µM (NCI-H522): 96%; growth at 0.03 µM (MCF7): 93%; growth at 3 µM (SW-620): 23%; growth at 0.03 µM (UO-31 [15]): 92%; growth at 0.03 µM (LOX IMVI): 91%; growth at 3 µM (HT-29): 60%; growth at 0.003 µM (NCI-H23): 90%; growth at 30 µM (SN12C [16]): 3%; growth at 0.3 µM (UO-31 [17]): 93%; growth at 30 µM (UO-31 [18]): 7%; growth at 30 µM (CAKI-1): -9%; growth at 0.03 µM (SN12C [19]): 96%; growth at 0.3 µM (UACC-257 [20]): 93%
